Assay results reported in publication PMC7395048 (Archives of Toxicology, 2020).
Marks after values point to notes of the source that are not given here.

What was measured:
hiPSC-CM = hiPSC-CM MEA assay (FPDc, extracellular field potential)
Procedure: Briefly, each well of the MEA chips was precoated with 50 μg/ml fibronectin for 3 h in the incubator at 37 °C with 5% CO2. The fibronectin coating solution was aspirated before seeding. Cells were thawed in the incubator at 37 °C for exactly 4 min and carefully transferred to a 50-ml tube. The original vial was rinsed with serum free Pluricyte® Cardiomyocyte Medium and added drop-wise to the tube containing the cardiomyocytes. […] Then, the supernatant was removed and medium was drop-wisely added to reach the aimed concentration of cells in the suspension (10^4 cells/μl). 2-μl cell suspension per well was placed on the six-well MEA chips in a density of 10^4 cells/μl. After 3-h incubation (37 °C, 5% CO2), 200 μl of medium was filled into each well of the MEA chips which were subsequently incubated at 37 °C with 5% CO2 and refreshed with medium every 2 days.
At 7–8 days after seeding, MEA chips were placed on the headstage of a MEA2100-system (MCS GmbH) integrated with the chamber providing a stable atmosphere (37 °C, 5% CO2) to record the extracellular field potential (Fig. 2) of spontaneous beating hiPSC-CM. After an equilibration time of 20 min, half of the medium (100 μl) in each well was replaced by culture medium containing 0.2% (v/v) DMSO to reach a final concentration of 0.1% (v/v) DMSO, which was used as baseline condition. […] At each concentration, the extracellular field potential was recorded for 1 min after 10-min exposure. […] Same test concentrations were chosen for EDDP and EMDP, which enables definition of concentration-dependent curves for EDDP and EMDP that allow potency comparison.
One well of 0.1% (v/v) DMSO on each MEA chip was used as the vehicle control well and run at the same time as the compound exposure wells to correct for time- and DMSO-dependent effects on the field potential. A detailed exposure scheme can be found in Fig. S1. Data were collected using Cardio 2D software (MCS GmbH) with a sample frequency of 10 kHz and a 0.1–3.5-kHz band-pass filter.
Field potential duration (FPD) was defined as duration between the beginning of the sodium spike and the repolarizing peak (Fig. 2). RR-intervals were defined as the duration between two depolarization peaks (Fig. 2). The FPD and RR-interval were measured as the average of at least 30 beats from 1-min recording at each concentration of the test compound.
In this formula, the FPD and RR-interval are expressed in seconds. Data were collected from at least three independent experiments (4–8 wells, 26–38 electrodes), using a new vial of cells (all from the same batch) at each independent experiment. […] The concentrations inducing irregularities in the field potential trace (Fig. S2) were also noted.
The concentration–response curves were plotted with GraphPad Prism 5.0 using the four-parameters logistic fit (GraphPad Software Inc., San Diego, USA). Each data point is presented as the mean value of at least three independent experiments ± standard deviation (SD). Statistical significance of the changes in response of cells exposed to the compound compared to the solvent control was analyzed by one-way ANOVA followed by post Dunnett test. Values of p < 0.05 were regarded as statistically significant (p < 0.05: *, p < 0.01: ** and p < 0.001: ***). Statistical analysis was performed by GraphPad Prism 5.0 (GraphPad Software Inc.).

[1] = In vitro incubations with pooled human liver microsomes
Procedure: The test concentrations were chosen to enable adequate analysis of Michaelis–Menten kinetics. After one-min pre-incubation of this solution at 37 °C, the reactions were initiated by addition of human liver microsomes giving a final concentration of 0.5 mg/ml microsomal protein and incubations were performed in a shaking water bath at 37 °C for 40 min. Control incubations were performed in the absence of NADPH which was replaced with Tris–HCl. The reactions were terminated by addition of 40-µl ice-cold acetonitrile. Samples were kept on ice for at least 20 min and then centrifuged at 18,000g for 5 min at 4 °C to precipitate microsomal proteins.
Vmax and Km were obtained by fitting the data to Eq. (2) in GraphPad Prism 5.0 (GraphPad Software Inc.). Data were collected from three independent experiments and each data point is presented as the mean value ± SD.

[2] = ref Eap et al. [1990]; Olsen [1973]; Romach et al. [1981]; Wilkins et al. [1997]; cited from earlier work
[3] = cited from earlier work
[4] = in vivo, po; cited from earlier work
[5] = RED assay, unbound fraction in in vitro hiPSC-CM MEA assay medium; details: in vitro hiPSC-CM MEA assay medium (serum-free)
[6] = tested on: QTc interval in the human ECG; test: PBK modeling-based reverse dosimetry and BMD analysis of predicted QTc dose-response; details: 70 kg

SMILES: CCC(=O)C(CC(C)N(C)C)(c1ccccc1)c1ccccc1 (stereo not shown) [methadone]
- BMC20, prolongation of FPDc (hiPSC-CM; 20% change in FPDc over control, cumulative addition, 10-min exposure): 0.6 µM
- concentration at which cessation of beating was observed (hiPSC-CM; human, 10 min): 30 µM
- concentration from which arrhythmia-like waveforms were induced (hiPSC-CM; tested up to 30 µM): ≥ 3 µM
- cytotoxicity at the test concentrations (hiPSC-CM; up to 30 µM, data not shown): no cytotoxicity was observed
- Km at 40 min ([1]; human): 275 ± 26.8 µM
- EMDP formation from methadone ([1]; methadone as substrate): No EMDP formation was measured
- fu,p, extreme value (low) [2]: 0.034
- pKa ([3]; ref Gerber et al. ([2001])): 9.20^b
- LogP ([3]; ref Ke et al. ([2014])): 3.93^a
- Fraction absorbed (Fa) [4]: 0.88
- fraction unbound at 5 h, 150 µM [5]: 0.79 ± 0.041
- BMDL10 ([6]; fu,p 0.034, model averaging): 109 mg/day
- BMDU10 ([6]; fu,p 0.034, model averaging): 509 mg/day
- BMDL10 ([6]; fu,p 0.055, model averaging): 66.7 mg/day
- BMDU10 ([6]; fu,p 0.055, model averaging): 316 mg/day
- BMDL10 ([6]; fu,p 0.15, model averaging): 24.2 mg/day
- BMDU10 ([6]; fu,p 0.15, model averaging): 117 mg/day
- BMDL10 ([6]; fu,p 0.22, model averaging): 16.5 mg/day
- BMDU10 ([6]; fu,p 0.22, model averaging): 79.5 mg/day
